Experimental data published in US20250339425A1 (Northeastern University, priority 2024, published 2025).
Read-outs that look alike come from different tables or passages of the source.

Tests used:
[1] = test system: BzATP-induced release of IL-1β by human monocytic THP-1 cells; assay: BzATP-induced release of IL-1β by LPS-primed monocytic THP-1 cells (ELISA); settings: for inhibitory effect on IL-1β release at the lowest concentration tested: 1 nM; for inhibition of BzATP-induced release of IL-1β: LPS-primed THP-1 cells, ACh at 10 μM
Method: Monocytic THP-1 cells were primed with lipopolysaccharide (LPS; 1 μg/ml, 5 hours). Thereafter, the P2X7 receptor agonist BzATP (100 μM) was added for another 40 minutes to trigger IL-1β release. […] The IL-1β concentrations obtained after stimulation with BzATP+solvent were set to 100% and all other values were calculated accordingly. Data are presented as individual data points, the bar represents the median, and whiskers encompass the 25th to 75th percentile. *p≤0.05, different from LPS-primed cells stimulated with BzATP alone. Friedman test followed by the Wilcoxon signed-rank test.
The new compounds were tested for the ability to down-regulate the ATP-mediated release of 10 IL-1β by human monocytic THP-1 cells.
Monocytic THP-1 cells were primed with lipopolysaccharide (LPS, 1 μg/ml) for 5 hours and further stimulated them with BzATP (100 μg/ml) for 40 minutes to induce the maturation and release of IL-1β.
The monocytic THP-1 cell line was obtained from the German Collection of Microorganisms and Cell Cultures (Braunschweig, Germany). […] Thereafter, 0.5×10^6 cells/0.5 ml and per well were seeded in 48-well plates (Greiner Bio-One, Frickenhausen, Germany) as described previously.^27 The cells were primed with LPS (1 μg/ml; E. coli O26:B6, Merck, Darmstadt, Germany, Cat #L2654) for 5 h under 5% CO2 atmosphere at 37° C. […] After the treatment, cells were spun down (500 g, 8 min, 4° C.) to collect the cell-free supernatants, that were stored at −20° C. for later measurements of IL-1β and lactate dehydrogenase (LDH) activity.
To measure IL-1β concentrations in the cell-free supernatants the Human IL-1 beta/IL-1F2 DuoSet enzyme-linked immunosorbent assay (ELISA) from R&D Systems (Cat #DY201) was used according to the supplier's instructions. In parallel, LDH activity was measured to test for cell viability at the end of the cell culture experiments, using the CytoTox 96® Non-Radioactive Cytotoxicity Assay (Promega, Madison, WI, United States; Cat #G1780) according to the supplier's instructions.
Results obtained in the BzATP-induced IL-1β release experiments were analyzed using SPSS (Version 27, IBM, Armonk, NY, United States). The data were analyzed first by the Friedman test followed by the Wilcoxon signed-rank test. […] The number (n) of individual experiments is indicated in the Figures and refers to independent experiments, which were performed on different days with different cell passages.

human α7 nAChR = human α7 nAChR (Homo sapiens, UniProt P36544)
Chain of human α7 nAChR (P36544 23-502): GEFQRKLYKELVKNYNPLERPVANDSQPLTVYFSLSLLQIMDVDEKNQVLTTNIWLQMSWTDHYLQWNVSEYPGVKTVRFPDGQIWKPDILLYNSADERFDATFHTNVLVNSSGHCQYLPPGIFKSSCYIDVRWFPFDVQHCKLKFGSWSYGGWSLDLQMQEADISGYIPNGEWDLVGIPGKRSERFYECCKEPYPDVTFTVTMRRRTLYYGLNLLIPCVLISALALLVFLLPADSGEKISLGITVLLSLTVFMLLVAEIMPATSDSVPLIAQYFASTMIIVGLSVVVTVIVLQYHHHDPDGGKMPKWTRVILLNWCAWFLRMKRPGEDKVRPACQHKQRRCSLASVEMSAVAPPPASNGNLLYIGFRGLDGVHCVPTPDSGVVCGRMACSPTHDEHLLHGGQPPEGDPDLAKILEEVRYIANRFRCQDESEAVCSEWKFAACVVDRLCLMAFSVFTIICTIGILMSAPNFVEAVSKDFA

[2] = In vitro metabolic stability in rat hepatocytes
α9 nAChR [3] = target: T1, α9 nAChR (Homo sapiens, UniProt Q9UGM1); settings: for EC50: read-out: α9 EC50
T1 sequence (Q9UGM1 26-479 limits assumed): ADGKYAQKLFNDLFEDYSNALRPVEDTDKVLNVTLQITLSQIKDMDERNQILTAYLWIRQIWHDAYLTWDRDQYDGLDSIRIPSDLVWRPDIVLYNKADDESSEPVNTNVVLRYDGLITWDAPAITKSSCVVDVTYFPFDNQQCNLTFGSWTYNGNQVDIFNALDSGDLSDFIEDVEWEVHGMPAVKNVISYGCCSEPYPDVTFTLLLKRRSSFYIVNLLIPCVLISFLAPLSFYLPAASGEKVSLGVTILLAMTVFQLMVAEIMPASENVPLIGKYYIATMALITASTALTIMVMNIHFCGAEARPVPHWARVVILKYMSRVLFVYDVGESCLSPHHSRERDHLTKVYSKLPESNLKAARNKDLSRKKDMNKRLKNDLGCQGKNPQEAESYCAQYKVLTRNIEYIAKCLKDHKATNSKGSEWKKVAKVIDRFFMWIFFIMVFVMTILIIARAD

[4] = In vitro metabolic stability in pooled human liver microsomes
[5] = test system: CFA-induced inflammatory pain in mice; settings: mouse, in vivo
Method: Experiments were conducted using adult (10-15 weeks) male and female C57BL/6J mice from Jackson Laboratory (Bar Harbor ME, USA): α7 WT and KO mice on a C57BL/6J background. Mice null for the α7 subunit along with their WT littermates were initially procured from Jackson Laboratory and later bred in an approved animal care facility at Virginia Commonwealth University. The breeding scheme involved crossing heterozygous mice and backcrossing progeny for at least 12 to 15 generations, to control for irregularities that might occur crossing solely mutant animals, to generate both mutant and WT animals. […] Then mice were retrieved from the vivarium and housed (4-5 mice per cage) for the duration of the study in a temperature- and humidity-controlled out-of-vivarium space on the same light/dark cycle. They were given ad libitum food and water. All experiments were performed during the light cycle.
Mice were injected intraplantarly with 20 μl of CFA (50%, diluted in mineral oil; Sigma-Aldrich). Mechanical sensitivity (see the measurement of the von Frey test) was measured before and 3 days after CFA injection.
The mechanical threshold was expressed as log 10 of 10× force (in milligrams), indicating the force of the von Frey hair to which the animal reacted (paw withdrawn, licking, or shaking). All behavioral testing on animals was performed in a blinded manner.

[6] = test system: CFA-induced paw edema in mice; assay: CFA-induced paw edema in mice; assay type: in vivo, mouse; settings: CFA-treated mice; 10 mg/kg differing from vehicle
[7] = test system: locomotor activity of mice; assay: Locomotor activity of mice (photocell activity cages); assay type: in vivo, mouse; settings: 10 mg/kg, compared to vehicle-treated animals
Method: Mechanical thresholds were elevated by treatments with II (FIGS. 5A-5D). […] Therefore, the data in FIGS. 5A-5D are the mean±SD scores for each condition. Statistical analysis was conducted using a Kruskal-Wallis test followed by Mann-Whitney rank sum test at each time point following II treatment.
Interruptions of the photocell beams (two banks of eight cells each) were then recorded for the next 60 min. Data are expressed as number of photocell interruptions.

α9 nAChR [8] = target: T1, α9 nAChR; assay: cell-based
α9α10 nAChR = target: T2, α9α10 nAChR (Homo sapiens, UniProt Q9GZZ6+Q9UGM1); assay: Inhibition of ACh-evoked currents, co-application with 60 μM ACh, oocytes expressing α9α10; assay type: cell-based; settings: co-applied with 60 μM ACh; unit not printed for these values (α9 values in μM); read-out: IC50 as antagonist on α9α10
T2 construct: expressed in transfected cells; host or cells: Xenopus laevis oocytes injected with in vitro transcribed RNA
T2 sequence (Q9UGM1 26-479 limits assumed): as above
T2 sequence (Q9GZZ6 25-450): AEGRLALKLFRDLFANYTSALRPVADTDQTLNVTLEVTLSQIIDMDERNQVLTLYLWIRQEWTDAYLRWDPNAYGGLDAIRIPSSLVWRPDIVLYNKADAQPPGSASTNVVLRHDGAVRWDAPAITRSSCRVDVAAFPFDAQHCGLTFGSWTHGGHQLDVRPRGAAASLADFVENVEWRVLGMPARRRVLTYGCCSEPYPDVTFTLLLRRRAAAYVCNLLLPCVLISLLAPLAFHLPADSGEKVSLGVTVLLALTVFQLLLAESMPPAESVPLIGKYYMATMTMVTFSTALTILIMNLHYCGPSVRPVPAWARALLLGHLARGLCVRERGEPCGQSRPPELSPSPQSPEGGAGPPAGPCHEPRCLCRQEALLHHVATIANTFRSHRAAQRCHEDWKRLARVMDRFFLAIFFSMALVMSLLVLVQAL
Method: (§1) FIGS. 13A-13B show inhibition concentration-response studies for chiral diMPP compounds (2R)PA-diMPP (8) and (2S)PA-diMPP (9), identified as α9 and α9α10 antagonists.
(§2) Experimental responses were measured relative to the preceding ACh control response. […] The transition from agonist to antagonist behavior in α7 to α9* nAChRs indicates a slightly bigger dialkyl tail on nitrogen, or perhaps more importantly, the asymmetry of the groups and potential for multiple rotamers is important for α9 agonism, while chirality is more important for α7 selectivity.
(§3) Two-electrode voltage-clamp experiments were conducted using OpusXpress 6000A (Molecular Devices, Union City CA, USA). Both the voltage and current electrodes were filled with 3 M KCl. Oocytes were voltage-clamped at −60 mV at room temperature. The oocytes were perfused with Ringer's solution (115 mM NaCl, 2.5 mM KCl, 1.8 mM CaCl2), 10 mM HEPES, 1 μM atropine, pH 7.2) at 2 ml/min. […] Drug applications were 12 s in duration followed by 181 s washout periods.

α9 nAChR [9] = target: T1, α9 nAChR; assay: Inhibition of ACh-evoked currents, co-application with 60 μM ACh, oocytes expressing α9; assay type: cell-based; design: expressed in transfected cells; host or cells: Xenopus laevis oocytes injected with in vitro transcribed RNA; settings: co-applied with 60 μM ACh; read-out: IC50 as antagonist on α9
Method: as §1, §2, §3

[10] = Table 1, net charge, relative to ACh maximum
[11] = read-out: α7 EC50, Table 1, unit inferred
[12] = read-out: α7 EC50, Table 4, unit inferred
[13] = Table 1, peak current, relative to ACh maximum
[14] = Table 4, chiral EMPPs and diMPPs
[15] = Table 1, unit not given (0.23 as 230 nM)
[16] = read-out: α7 EC50, Table 2, unit inferred

CC[N+]1(C)CCN(c2ccc(C#N)cc2)C[C@H]1C (stereo partly drawn) [(2R)r/s-pCN-EMPP]
inhibitory effect on IL-1β release at the lowest concentration tested [1]: moderate but significant inhibitory effects | inhibition of BzATP-induced release of IL-1β [1]: significantly inhibited

CC[N+]1(C)CCN(c2ccc(C#N)cc2)CC1C [(2S)r/s-pCN-EMPP]
EC50 (human α7 nAChR): 26600 ± 9600 nM | inhibition of BzATP-induced release of IL-1β [1]: significantly inhibited

CC[N+]1(C)CCN(c2ccc(C(=O)Nc3cccc(C)n3)cc2)CC1 [Compound 3f, reference compound]
α7 Imax (human α7 nAChR; [10]): 0.40 ± 0.02 | α7 Imax (human α7 nAChR; Table 4): 0.40 ± 0.02 | EC50 (human α7 nAChR; [11]): 6100 ± 1100 nM | EC50 (human α7 nAChR; [12]): 6100 ± 1100 nM | clearance [2]: low clearance | α9 Imax (α9 nAChR [3]; [13]): 1.19 ± 0.03 | α9 Imax (α9 nAChR [3]; [14]): 1.19 ± 0.03 | EC50 (α9 nAChR [3]; [15]): 510 ± 70 nM | EC50 (α9 nAChR [3]; Table 4, unit inferred): 510 ± 70 nM | plasma protein binding (Plasma protein binding): 32% | clearance [4]: low clearance

CC[N+]1(CC)CCN(c2ccc(NC(=O)c3cccc(C)n3)cc2)CC1.[I-] [Compound I, 1,1-Diethyl-4-(4-(6-methylpicolinamido)phenyl)piperazin-1-ium iodide]
α7 Imax (human α7 nAChR; [10]): 0.14 ± 0.004 | α7 Imax (human α7 nAChR; Table 3): 0.41 ± 0.025 | EC50 (human α7 nAChR; [11]): 4680 ± 540 nM | EC50 (human α7 nAChR; read-out: α7 EC50, Table 3, unit inferred): 78300 ± 11300 nM | α9 Imax (α9 nAChR [3]; [13]): 1.24 ± 0.04 | α9 Imax (α9 nAChR [3]; Table 3, reverse amide GATs): 1.01 ± 0.03 | EC50 (α9 nAChR [3]; [15]): 1630 ± 200 nM | EC50 (α9 nAChR [3]; Table 3, unit not printed (text gives 0.086 as 86 nM)): 230 ± 34 nM

CC[N+]1(C)CCN(c2ccc(NC(=O)c3cccc(C)n3)cc2)CC1 [Compound II, 1-Ethyl-1-methyl-4-(4-(6-methylpicolinamido)phenyl)piperazin-1-ium iodide]
α7 Imax (human α7 nAChR; [10]): 0.41 ± 0.025 | EC50 (human α7 nAChR; [11]): 78300 ± 11300 nM | clearance [2]: low clearance | mechanical thresholds at the 72 h time point [5]: no significant effects | paw edema [6]: significantly reduced paw edema | type of activity at α9 / α9* nAChR (α9 nAChR [3]): full agonist | α9 Imax (α9 nAChR [3]; [13]): 1.01 ± 0.03 | EC50 (α9 nAChR [3]; [15]): 230 ± 34 nM | plasma protein binding (Plasma protein binding): 54% | clearance [4]: low clearance | locomotor activity [7]: did not significantly alter locomotor activity

CC[N+]1(C)CCN(c2ccc(NC(C)=O)cc2)CC1 [Compound III, 4-(4-Acetamidophenyl)-1-ethyl-1-methylpiperazin-1-ium Iodide]
α9 Imax (α9 nAChR [3]; [13]): 0.75 ± 0.04 | EC50 (α9 nAChR [3]; [15]): 2270 ± 490 nM | increase in potency relative to ACh (α9 nAChR [3]; α9): 113 fold | EC50 (α9 nAChR [8]): 230 nM

CC[N+]1(C)CCN(c2ccc(C(=O)Nc3cccc(C)n3)cc2)C[C@H]1C (stereo partly drawn) [Compound IV-a, (2R)-1-ethyl-1,2-dimethyl-4-(4-((6-methylpyridin-2-yl)carbamoyl)phenyl)piperazin-1-ium iodide]
α7 Imax (human α7 nAChR; Table 2, chiral compounds): 0.548 ± 0.02 | α7 Imax (human α7 nAChR; Table 4): 0.55 ± 0.02 | EC50 (human α7 nAChR; [16]): 7160 ± 1290 nM | EC50 (human α7 nAChR; [12]): 7160 nM | receptor selectivity α9 vs α7 (α9 nAChR [3]): selective towards α7 | α9 Imax (α9 nAChR [3]; Table 2, chiral compounds): 0.0521 ± 0.013 | α9 Imax (α9 nAChR [3]; [14]): 0.052 ± 0.013 | EC50 (α9 nAChR [3]; Table 2, unit inferred): 1930 ± 2250 nM | EC50 (α9 nAChR [3]; Table 4, unit inferred): 1930 ± 2250 nM | inhibitory effect on IL-1β release at the lowest concentration tested [1]: moderate but significant inhibitory effects | inhibition of BzATP-induced release of IL-1β [1]: significantly inhibited

Cc1cccc(NC(=O)c2ccc(N3CC[N+](C)(C)[C@@H](C)C3)cc2)n1 [Compound IV-e]
α7 Imax (human α7 nAChR; Table 2, chiral compounds): 0.397 ± 0.011 | α7 Imax (human α7 nAChR; Table 4): 0.397 ± 0.01 | EC50 (human α7 nAChR; [16]): 3490 ± 350 nM | EC50 (human α7 nAChR; [12]): 3490 ± 350 nM | receptor selectivity α9 vs α7 (α9 nAChR [3]): selective for α7 | type of activity at α9 / α9* nAChR (α9 nAChR [3]): antagonists of the alpha 9 nicotinic acetylcholine receptor | α9 Imax (α9 nAChR [3]; Table 2, chiral compounds): 0.04 ± 0.005 | α9 Imax (α9 nAChR [3]; [14]): 0.04 ± 0.005 | type of activity at α9 / α9* nAChR (α9 nAChR [3]; listed as (2S)PA-diMPP): lost nearly all agonist activity for α9* receptors | EC50 (α9 nAChR [3]; Table 2, unit inferred): 800 ± 600 nM | EC50 (α9 nAChR [3]; Table 4, unit inferred): 800 ± 600 nM | IC50 (α9α10 nAChR): 4.33 ± 1.14 µM | inhibition of BzATP-induced release of IL-1β [1]: significantly inhibited | antagonism of the effect of ACh on IL-1β release ([1]; all concentrations investigated (1 nM to 100 μM), ACh 10 μM): significantly antagonized the effect of ACh | IC50 (α9 nAChR [9]): 240 ± 110 nM

CC[N+]1(C)CCN(c2ccc(C(=O)Nc3cccc(C)n3)cc2)C[C@@H]1C (some centres unmarked) [IV-b]
α7 Imax (human α7 nAChR; Table 2, chiral compounds): 0.238 ± 0.004 | α7 Imax (human α7 nAChR; Table 4): 0.24 ± 0.004 | EC50 (human α7 nAChR; [16]): 7100 ± 490 nM | EC50 (human α7 nAChR; [12]): 7100 ± 490 nM | receptor selectivity α9 vs α7 (α9 nAChR [3]): selective towards α9 | α9 Imax (α9 nAChR [3]; Table 2, chiral compounds): 0.670 ± 0.02 | α9 Imax (α9 nAChR [3]; [14]): 0.670 ± 0.02 | EC50 (α9 nAChR [3]; Table 2, unit inferred): 2090 ± 630 nM | EC50 (α9 nAChR [3]; Table 4, unit inferred): 2090 ± 630 nM | inhibition of BzATP-induced release of IL-1β [1]: significantly inhibited
